How the values were obtained:
[1] = target: DRG sodium channel; conditions: cited from earlier work
[2] = target: T1, PNS SCP (PN1 sodium channel) in PK1-4 cells (Rattus norvegicus, UniProt O08562); assay: (14C) guanidinium flux assay in cells expressing a PNS SCP; assay type: cell-based
T1 construct: PKI-4 cells express a PNS SCP(PN1) without NGF treatment; endogenous in cells
T1 sequence (O08562 whole entry): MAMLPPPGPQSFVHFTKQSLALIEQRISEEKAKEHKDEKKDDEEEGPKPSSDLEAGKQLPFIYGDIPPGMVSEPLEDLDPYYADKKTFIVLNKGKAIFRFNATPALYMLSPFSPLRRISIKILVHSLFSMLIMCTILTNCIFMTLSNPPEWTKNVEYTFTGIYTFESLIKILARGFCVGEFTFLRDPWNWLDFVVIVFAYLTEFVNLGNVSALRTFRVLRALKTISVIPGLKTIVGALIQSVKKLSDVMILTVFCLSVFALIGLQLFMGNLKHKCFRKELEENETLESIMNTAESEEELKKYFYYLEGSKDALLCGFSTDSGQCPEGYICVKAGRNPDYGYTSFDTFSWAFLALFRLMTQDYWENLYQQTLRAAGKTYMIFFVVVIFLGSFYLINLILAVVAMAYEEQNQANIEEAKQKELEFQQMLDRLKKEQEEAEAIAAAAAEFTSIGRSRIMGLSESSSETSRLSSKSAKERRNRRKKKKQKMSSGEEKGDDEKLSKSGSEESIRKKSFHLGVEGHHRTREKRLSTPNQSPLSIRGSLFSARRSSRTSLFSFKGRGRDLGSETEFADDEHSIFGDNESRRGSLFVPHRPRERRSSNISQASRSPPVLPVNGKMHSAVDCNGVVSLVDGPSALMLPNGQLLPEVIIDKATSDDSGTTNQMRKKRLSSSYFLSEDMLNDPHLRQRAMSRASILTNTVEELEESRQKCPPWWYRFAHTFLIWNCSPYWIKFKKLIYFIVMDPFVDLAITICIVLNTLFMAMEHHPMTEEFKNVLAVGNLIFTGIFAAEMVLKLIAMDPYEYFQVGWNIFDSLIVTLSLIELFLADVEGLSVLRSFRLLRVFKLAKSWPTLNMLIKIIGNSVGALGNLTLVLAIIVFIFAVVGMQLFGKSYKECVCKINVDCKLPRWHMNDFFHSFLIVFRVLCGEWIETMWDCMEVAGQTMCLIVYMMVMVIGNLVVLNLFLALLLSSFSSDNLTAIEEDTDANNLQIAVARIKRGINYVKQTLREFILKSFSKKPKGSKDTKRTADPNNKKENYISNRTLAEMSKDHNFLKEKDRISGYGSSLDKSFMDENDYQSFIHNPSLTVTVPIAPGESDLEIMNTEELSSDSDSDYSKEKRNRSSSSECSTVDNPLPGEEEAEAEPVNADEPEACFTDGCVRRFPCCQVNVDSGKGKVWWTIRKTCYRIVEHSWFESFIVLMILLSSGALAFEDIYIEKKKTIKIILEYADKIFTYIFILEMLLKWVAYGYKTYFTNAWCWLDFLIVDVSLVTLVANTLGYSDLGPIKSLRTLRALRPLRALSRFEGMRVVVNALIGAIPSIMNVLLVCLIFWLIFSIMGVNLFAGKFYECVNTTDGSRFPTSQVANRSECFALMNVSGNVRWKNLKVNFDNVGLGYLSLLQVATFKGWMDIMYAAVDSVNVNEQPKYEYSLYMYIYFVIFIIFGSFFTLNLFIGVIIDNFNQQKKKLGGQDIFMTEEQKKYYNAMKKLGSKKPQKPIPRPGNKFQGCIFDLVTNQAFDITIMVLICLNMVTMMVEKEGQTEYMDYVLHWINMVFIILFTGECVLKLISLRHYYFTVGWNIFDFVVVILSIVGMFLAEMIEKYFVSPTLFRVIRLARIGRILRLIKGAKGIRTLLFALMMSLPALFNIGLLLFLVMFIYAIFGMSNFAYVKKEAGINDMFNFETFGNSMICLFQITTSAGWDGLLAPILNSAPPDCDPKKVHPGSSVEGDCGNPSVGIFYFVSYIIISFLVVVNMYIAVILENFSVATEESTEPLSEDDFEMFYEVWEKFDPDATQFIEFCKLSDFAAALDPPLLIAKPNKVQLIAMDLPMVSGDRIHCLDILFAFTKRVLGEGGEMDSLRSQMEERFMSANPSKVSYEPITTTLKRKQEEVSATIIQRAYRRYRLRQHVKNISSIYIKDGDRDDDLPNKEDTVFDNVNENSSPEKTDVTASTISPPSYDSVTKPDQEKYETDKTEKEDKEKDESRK

SMILES	kD for TTX of the DRG channel relative to the kD of sodium channels in skeletal muscle or heart [1]	inhibition of sodium channel activity of at least one PNS SCP ([2]; cell lines expressing at least one PNS SCP (PC12, PK1-4 and other isolated or recombinant cells))	IC50 ([2]; guanidinium flux assay, PK1-4 cells, read-out: for inhibition of sodium channel activity (converted))
NC1=N[C@H](O)[C@H]2[C@H]3O[C@]4(O)O[C@@H]([C@@H](O)[C@@]2(N1)[C@@H]4O)[C@]3(O)CO [TTX, tetrodotoxin]	approximately tenfold higher	–	–
Cc1cccc(C)c1NC(=O)CN1CCN(CCCC(c2ccc(F)cc2)c2ccc(F)cc2)CC1 [lidoflazine]	–	found to inhibit sodium channel activity	309 nM
